# Measured values published in article PMC12735718, “Novel Adamantane–Sclareol Hybrids Exploit ROS Vulnerability to Overcome Multidrug-Resistance in Glioblastoma Cells” (Molecules, 2025).
# Experiments:
# U87 cells = assay: MTT cell viability assay, U87; assay type: cell-based; conditions: Homo sapiens, U-87 MG, 72 h treatment
# Experimental: (§1) Cell viability was measured using the colorimetric MTT assay based on the reduction of MTT into formazan dye. Cell lines were seeded into 96-well cell culture plates (4000 cells/well) in appropriate medium. After overnight incubation, cells were treated with increasing concentrations of 1, 2, 3, 4, 5, and 6 (0.5, 1, 2, 4, and 8 µM). After 72 h treatment, MTT solution (4 mg/mL) was added and plates were incubated at 37 °C with 5% CO2 for 3 h. After incubation, formazan crystals were dissolved using 100 µL DMSO, resulting in a purple color. The absorbance was measured at 570 nm with a reference wavelength of 690 nm using an automated microplate reader (MultiskanSky, Thermo Scientific, USA). The IC50 values were determined by non-linear regression analysis in GraphPad Prism 8.0.2. software (GraphPad Software, Boston, MA, USA).
# U87-TxR cells [1] = assay: MTT cell viability assay, U87-TxR; assay type: cell-based, human; conditions: for IC50: Homo sapiens, U87-TxR, 72 h treatment, MTT, MDR cell line; for Relative Resistance Factor: ratio of IC50 values U87-TxR / U87
# Experimental: as §1
# SVG p12 cells = assay: MTT cell viability assay, SVG p12; assay type: cell-based, human; conditions: for IC50: Homo sapiens, SVGp12, 72 h treatment, MTT, normal glial cell line; for Selectivity Index: IC50 SVG p12 vs average IC50 in A-172, U87 and U87-TxR
# Experimental: as §1
# A-172 cells = assay: MTT cell viability assay, A-172; assay type: cell-based; conditions: Homo sapiens, 72 h treatment
# Experimental: as §1
# U87-TxR cells [2] = assay: Cell death detection, AV/PI staining, U87-TxR; assay type: cell-based, human; conditions: 48 h; for cell death effect in MDR U87-TxR cells vs sensitive U87 cells: 4 µM, AV/PI; for percentage of early apoptotic cells vs untreated: 2 µM and 4 µM, particularly at 4 µM
# Experimental: To evaluate the extent of cell death upon treatment with adamantane–sclareol hybrids, apoptotic, necrotic, and viable cell populations were assessed using dual staining with AV/PI. U87 and U87-TxR cells were seeded in 6-well plates at a density of 150,000 cells per well and incubated overnight. Subsequently, cells were treated with 2 and 5 (2 µM and 4 µM) for 48 h. At the end of the treatment period, cells were collected (both adherent and floating), washed, and incubated with AV/PI in binding buffer. Samples were analyzed using a CytoFLEX flow cytometer (Beckman Coulter, Indianapolis, IN, USA), with fluorescence signals detected at 525 nm (AV) and 585 nm (PI). At least 10,000 events were recorded per each condition. The percentages of viable (AV^− PI^−), early apoptotic (AV^+ PI^−), late apoptotic (AV^+ PI^+), and necrotic (AV^− PI^+) cells were calculated using CytExpert 2.4.0.28 software (Beckman Coulter, Indianapolis, IN, USA).
# U87-TxR cells [3] = assay: Combination with PTX, MTT assay; assay type: cell-based, human; conditions: Homo sapiens, U87-TxR; PTX alone, 72 h
# Experimental: as §1
# The combined effects of 2 and 5 with PTX were studied in U87-TxR cells by MTT assay as previously described. In simultaneous treatments that lasted 72 h, three concentrations of 2 and 5 (0.5, 1, and 2 µM) were combined with three concentrations of PTX (0.1 μM, 0.2 μM, and 0.5 μM). Drug combination effects were evaluated using the Chou–Talalay method, which calculates the combination index (CI) value for the degree of interaction between the drugs. This method allows quantitative assessment of synergism (CI < 1), additivity (CI close to 1), or antagonism (CI > 1) across a range of dose–effect relationships. Calcusyn® version 1.1 software was used for data analysis (Biosoft, Cambridge UK). Three data points were used for each single drug in each designed experiment. The non-constant ratio combination was chosen to assess the effect of both drugs in combination. The results are presented in a fraction-affected CI graph.
# [4] = test system: mitochondrial membrane potential in U87 and U87-TxR cells; assay: TMRE mitochondrial membrane potential; assay type: cell-based, human; conditions: 10 µM, added 30 min before staining
# Experimental: The cell-permeable fluorescent dye TMRE was used to evaluate mitochondrial membrane potential. TMRE selectively accumulates in active mitochondria with intact membrane potential. […] U87 and U87-TxR cells were seeded in 6-well plates at a density of 150,000 cells per well. After 24 h, cells were treated with 2 and 5 (4 µM) and incubated for an additional 24 h. After treatment, cells were trypsinized, resuspended in complete medium containing 500 nM TMRE, and incubated for 30 min at 37 °C in the dark. CCCP (10 µM) was used as a positive control for mitochondrial depolarization and added 30 min before staining. For each sample, at least 10,000 events were collected. TMRE was detected at […]. The results were calculated using CytExpert 2.4.0.28 software (Beckman Coulter, Indianapolis, IN, USA).
# [5] = test system: H2O2 and peroxynitrite anion levels in U87-TxR cells; assay: ROS detection by DHR, U87-TxR; assay type: cell-based, human; conditions: 10 µM
# Experimental: The levels of ROS were measured in U87 and U87-TxR cells by flow cytometry. The production of superoxide anions was detected using DHE fluorescence dye, while production of H2O2 and peroxynitrite anions was detected using DHR fluorescence dye. Cells were seeded in 6-well plates (150,000 cell/well) and incubated overnight. The cells were then treated with compounds 2 or 5 (4 μM) for 24 h and 48 h. CDDP (10 μM) was used as a positive control. After the treatment period, the cells were stained with DHE or DHR for 30 min in the dark. Following incubation, cells were harvested with trypsinization and washed twice in cold phosphate buffer solution (PBS). Fluorescence was measured on a CytoFlex flow cytometer (Beckman Coulter, Indianapolis, IN, USA). Green fluorescence from the oxidized DHR dye was detected at 525 nm, while the red fluorescence from ethidium derived from DHE was detected at 585 nm. At least 10,000 events were assayed for each sample. The results were analyzed by CytExpert 2.4.0.28 software (Beckman Coulter, Indianapolis, IN, USA).
# [6] = test system: TrxR (SH-SY5Y cell lysate); assay: Colorimetric detection of cell lysate TrxR activity (DTNB); assay type: biochemical, human; conditions: positive control, 20 µM, DTNB absorbance over 20 min
# Excerpt: We further analyzed the potential of adamantane–sclareol hybrids to inhibit TrxR enzyme activity using a colorimetric assay for the detection of TrxR activity in cell lysates. This kinetic assay is based on the ability of TrxR to reduce its substrate 5,5ʹ-dithiobis(2-nitrobenzoic acid) (DTNB) to the yellow product 5-thio-2-nitrobenzoic acid (TNB) in the presence of NADPH. The absorbance of the produced TNB is considered equivalent to the enzymic activity of TrxR. In the kinetic assay, the absorbance of DTNB was measured over 20 min, resulting in a curve showing the dependence of absorbance on time.
# TrxR enzyme activity in cell lysate was determined by the reduction of the TrxR substrate DTNB to the yellow product TNB in the presence of NADPH (Acros Organics, Thermo Fisher Scientific, Waltham, MA, USA). Lysate from human neuroblastoma SH-SY5Y cells was used for the TrxR assay. SH-SY5Y cells were grown to 80% confluence, washed twice with PBS, and detached using Hanks-based enzyme-free dissociation solution (Millipore, Billeri-ca, MA, USA). Collected cells were centrifuged at 2000 rpm for 3 min and rinsed in PBS buffer. After additional centrifugation, cells were lysed on ice using Lysis Buffer (50 mM Tris, 150 mM NaCl, 1 mM EDTA, 1% NP40, 0.1% SDS, 0.5% Na-deoxycholate, pH 7.8) containing protease inhibitor mix G (SERVA Electrophoresis GmbH, Heidelberg, Germany) and phosphatase inhibitor cocktail 3 (Sigma-Aldrich, Darmstadt, Germany). The cell lysates were centrifuged at 16,000× g for 15 min at 4 °C. The protein concentrations of the supernatants were determined using a Pierce^TM BCA protein assay kit (Thermo Fisher Scientific, Waltham, MA, USA). The reactions were run in 96-well plates, in a final volume of 100 μL, in 50 mM potassium phosphate buffer (pH 7.0) containing 50 μg of cell lysate proteins, 1 mM EDTA, 50 mM KCl, 0.2 mg/mL BSA, and 0.25 mM NADPH. […] Enzyme kinetics were monitored on an automated microplate reader (MultiskanSky, Thermo Fisher Scientific, Waltham, MA, USA) by measuring the increase in absorbance at 412 nm for 20 min. […]
Compound,IC50 (U87 cells),IC50 (U87-TxR cells [1]),Relative Resistance Factor (U87-TxR cells [1]),IC50 (SVG p12 cells),Selectivity Index (SVG p12 cells),IC50 (A-172 cells),cell death effect in MDR U87-TxR cells vs sensitive U87 cells (U87-TxR cells [2]),also measured
"CC(=O)O[C@H]1C(=O)[C@@]2(C)[C@H]([C@H](OC(=O)c3ccccc3)[C@]3(O)C[C@H](OC(=O)[C@H](O)[C@@H](NC(=O)c4ccccc4)c4ccccc4)C(C)=C1C3(C)C)[C@]1(OC(C)=O)CO[C@@H]1C[C@@H]2O [PTX, paclitaxel, reference compound]",–,–,–,–,–,–,–,IC50 (U87-TxR cells [3]): 688 ± 22 nM
CC1(C)CCC[C@]2(C)[C@@H](CC[C@@](C)(O)/C=C/c3ccc(CNCCCCCCNCCC45CC6CC(CC(C6)C4)C5)s3)[C@](C)(O)CC[C@@H]12 [Compound 3],2200 ± 52 nM,2310 ± 52 nM,1.049,9290 ± 169 nM,3.541 ^S,3360 ± 57 nM,significantly better effects in MDR U87-TxR cells,percentage of early apoptotic cells vs untreated (U87-TxR cells [2]): significant increase
"Carbonyl cyanide m-chlorophenyl hydrazine [CCCP, reference compound]",–,–,–,–,–,–,–,"positive control effect on mitochondrial membrane potential, U87-TxR vs U87 [4]: more potent effects in MDR U87-TxR cells"
CC1(C)CCC[C@]2(C)[C@@H](CC[C@@](C)(O)/C=C/c3ccc(CNCCCCCCNCC45CC6CC(CC(C6)C4)C5)s3)[C@](C)(O)CC[C@@H]12 [Compound 1],2400 ± 61 nM,2080 ± 37 nM,0.869,5330 ± 132 nM,2.300 ^S,2470 ± 36 nM,significantly better effects in MDR U87-TxR cells,–
"[NH2][Pt]([NH2])([Cl])[Cl] [CDDP, Cisplatin, reference compound]",–,–,–,–,–,–,–,"positive control effect on ROS, U87-TxR vs U87 [5]: more potent effects in MDR U87-TxR cells"
"O=C(O)CC([S-])C(=O)O.[Au+] (stereo not drawn) [ATM, aurothiomalate, reference compound]",–,–,–,–,–,–,–,TrxR enzyme activity [6]: inhibited TrxR activity

# The next lines start with results.
IC50 (U87 cells),IC50 (U87-TxR cells [1]),Compound,Relative Resistance Factor (U87-TxR cells [1]),IC50 (SVG p12 cells),Selectivity Index (SVG p12 cells),IC50 (A-172 cells),cell death effect in MDR U87-TxR cells vs sensitive U87 cells (U87-TxR cells [2]),also measured
1250 ± 36 nM,1460 ± 27 nM,CC1(C)CCC[C@]2(C)[C@@H](CC[C@@](C)(O)/C=C/c3ccc(CNCCCCCCNCC45CC6CC(CC(C6)C4)C5)o3)[C@](C)(O)CC[C@@H]12 [Compound 4],1.160,918 ± 22 nM,0.686,1380 ± 18 nM,significantly better effects in MDR U87-TxR cells,"percentage of early apoptotic cells vs untreated (U87-TxR cells [2]): significant increase; early apoptotic population (AV+ PI−) (U87-TxR cells [2]; untreated cells 4.17%, Figure S3): 26.84%"
2470 ± 66 nM,1910 ± 46 nM,CC1(C)CCC[C@]2(C)[C@@H](CC[C@@](C)(O)/C=C/c3ccc(CNCCCCCCNCCC45CC6CC(CC(C6)C4)C5)o3)[C@](C)(O)CC[C@@H]12 [Compound 6],–,1160 ± 27 nM,0.547,2000 ± 26 nM,–,–
